Counter-ions that a name gives are not always drawn. Like-named read-outs stand apart in the source and are kept apart here.
Assays:
[1] = target: T1, neuronal nicotinic acetylcholine receptors (Rattus norvegicus, UniProt P09483+P12390); test: Binding of [3H]-cytisine to neuronal nicotinic acetylcholine receptors, crude synaptic membranes from whole rat brain
T1 construct: crude synaptic membrane preparations from whole rat brain; from tissue; host or cells: whole rat brain, crude synaptic membranes
Protocol: The In Vitro protocols for determination of nicotinic acetylcholine channel receptor binding potencies of ligands were determined as follows.
Washed membranes were stored at −80° C. prior to use. Frozen aliquots were slowly thawed and resuspended in 20 volumes of buffer (containing: 120 mM NaCl, 5 mM KCl, 2 mM MgCl2, 2 mM CaCl2 and 50 mM Tris-Cl, pH 7.4 @[…]). After centrifuging at 20,000×g for 15 minutes, the pellets were resuspended in 30 volumes of buffer.
The test compounds were dissolved in water to make 10 mM stock solutions. Each solution was then diluted (1:100) with buffer (as above) and further taken through seven serial log dilutions to produce test solutions from 10^−5 to 10^−11 M.
Samples were incubated for 60 minutes at 4° C., then rapidly filtered through Whatman GF/B filters presoaked in 0.5% polyethyleneimine using 3×4 mL of ice-cold buffer. The filters are counted in 4 mL of Ecolume® (ICN). Nonspecific binding was determined in the presence of 10 μM (−)-nicotine and values were expressed as a percentage of total binding. IC50 values were determined with the RS-1 (BBN) nonlinear least squares curve-fitting program and IC50 values were converted to Ki values using the Cheng and Prusoff correction (Ki=IC50/(1+[ligand]/Kd of ligand).

Male Sprague-Dawley rats = test: Formalin test (analgesia); format: in vivo; details: Rattus norvegicus, ip, intraperitoneally 5 minutes before injection of 50 μL 5% formalin into rear paw, nocifensive behaviors, read-out: (MED) minimally effective dose, formalin test
Protocol: Another in vivo protocol utilized to determine the effectiveness of nicotinic acetylcholine receptor ligands as analgesic agents was the formalin test.
Male Sprague-Dawley rats (Charles River, Portage, Mich.) weighing 200 to 400 grams were used for all experiments. After a 20 minute period of acclimation to individual cages, 50 μL of a 5% formalin solution was injected subcutaneous into the dorsal aspect of one of the rear paws and the rats were then returned to the clear observation cages suspended above mirror panels. […] Phase 1 of the formalin test was defined as the period of time immediately after injection of formalin until 10 minutes after the formalin injection (i.e., 0-10 minutes after formalin). Phase 2 was defined as the 20 minute period from 30 to 50 minutes after formalin injection. The investigator recorded nocifensive behaviors in the injected paw of four animals during the session by observing each animal for one 15 second observation period during each 1 minute interval. Nocifensive behaviors recorded included flinching, licking or biting the injected paw. In dose-response studies, the test compound (or saline) was administered intraperitoneally 5 minutes before injection of formalin.

[2] = [3H]-CYT 1.25 nM, whole rat brain membranes, 60 minutes at 4° C., IC50 converted to Ki by Cheng and Prusoff correction, read-out: Average Ki

T1 sequence (P09483 31-630): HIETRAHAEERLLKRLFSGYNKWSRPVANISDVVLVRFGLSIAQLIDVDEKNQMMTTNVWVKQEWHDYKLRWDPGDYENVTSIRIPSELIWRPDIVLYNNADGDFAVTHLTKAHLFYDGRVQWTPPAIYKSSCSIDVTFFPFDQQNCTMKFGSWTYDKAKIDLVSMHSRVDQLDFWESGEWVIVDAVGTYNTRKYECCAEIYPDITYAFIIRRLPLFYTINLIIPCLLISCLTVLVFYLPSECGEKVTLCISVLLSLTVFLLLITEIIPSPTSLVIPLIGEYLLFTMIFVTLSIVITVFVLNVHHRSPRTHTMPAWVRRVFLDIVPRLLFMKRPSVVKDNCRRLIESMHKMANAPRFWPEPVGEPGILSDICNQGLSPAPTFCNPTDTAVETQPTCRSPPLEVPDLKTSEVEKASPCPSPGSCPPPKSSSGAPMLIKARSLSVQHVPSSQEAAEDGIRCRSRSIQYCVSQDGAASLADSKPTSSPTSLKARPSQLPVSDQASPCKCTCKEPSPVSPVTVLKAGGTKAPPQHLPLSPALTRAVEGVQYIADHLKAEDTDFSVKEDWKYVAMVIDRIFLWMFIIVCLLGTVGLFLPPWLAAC
T1 sequence (P12390 25-500): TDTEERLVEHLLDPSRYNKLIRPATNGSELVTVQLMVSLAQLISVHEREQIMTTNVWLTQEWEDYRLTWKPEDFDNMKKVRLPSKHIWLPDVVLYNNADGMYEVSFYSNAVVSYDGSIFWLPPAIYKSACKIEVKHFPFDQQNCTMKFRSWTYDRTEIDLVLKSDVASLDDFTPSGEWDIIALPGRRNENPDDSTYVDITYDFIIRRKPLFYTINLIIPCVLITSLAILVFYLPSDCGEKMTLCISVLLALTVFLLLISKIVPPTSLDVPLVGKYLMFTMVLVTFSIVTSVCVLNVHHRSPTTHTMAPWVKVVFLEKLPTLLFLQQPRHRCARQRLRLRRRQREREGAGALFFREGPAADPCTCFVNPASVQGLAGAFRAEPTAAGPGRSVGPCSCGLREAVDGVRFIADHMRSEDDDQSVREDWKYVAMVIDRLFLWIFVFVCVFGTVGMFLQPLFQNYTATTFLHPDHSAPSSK

What does the source list for `Brc1cncc(N2C[C@@H]3CNC[C@@H]32)c1` [Example 71, (1S,5R)-6-(5-bromo-3-pyridinyl)-3,6-diazabicyclo[3.2.0]heptane]?
Ki [1]: 1.5 nM; minimal effective dose (Male Sprague-Dawley rats): > 19 µmol/kg

`C=Cc1cncc(N2C[C@@H]3CNC[C@@H]32)c1` [Example 69, (1S,5R)-6-(5-vinyl-3-pyridinyl)-3,6-diazabicyclo[3.2.0]heptane fumarate] was tested. Which Ki [1] did it give?
The Ki was 3.2 nM.

And the minimal effective dose (Male Sprague-Dawley rats)?
Its minimal effective dose is over 19 µmol/kg.

What does the source list for `N#Cc1cncc(N2CC[C@H]3CN[C@H]3C2)c1` (relative stereo) [Example 62, (cis)-5-[3,8-diazabicyclo[4.2.0]oct-3-yl]nicotinonitrile fumarate]?
Ki [1]: 0.1 nM; minimal effective dose (Male Sprague-Dawley rats): 0.19 µmol/kg

For `Cc1cc(N2C[C@H]3CNC[C@H]32)cnc1Cl` [Example 87, (1R,5S)-6-(6-chloro-5-methyl-3-pyridinyl)-3,6-diazabicyclo[3.2.0]heptane 4-methylbenzenesulfonate], which Ki [1] is on record?
The Ki was 0.2 nM.

What about the minimal effective dose (Male Sprague-Dawley rats) of the same compound?
Its minimal effective dose is 6.2 µmol/kg.

With `C=Cc1cc(N2C[C@@H]3CNC[C@@H]32)cnc1Br` [Example 72, (1S,5R)-6-(6-bromo-5-vinyl-3-pyridinyl)-3,6-diazabicyclo[3.2.0]heptane fumarate] as the compound, how does the Ki [1] read?
Its Ki is 0.6 nM.

And the minimal effective dose (Male Sprague-Dawley rats)?
The minimal effective dose was over 19 µmol/kg.

With `Brc1cncc(N2C[C@H]3CNC[C@H]32)c1` [Example 53, (1R,5S)-6-(5-bromo-3-pyridinyl)-3,6-diazabicyclo[3.2.0]heptane fumarate] as the compound, how does the Ki [1] read?
The Ki was 3.1 nM.

What about the minimal effective dose (Male Sprague-Dawley rats) of the same compound?
Its minimal effective dose is over 19 µmol/kg.

What does the source list for `c1cncc(N2C[C@@H]3CN[C@@H]3C2)c1` (relative stereo) [Example 38, (cis)-3-(3-pyridinyl)-3,6-diazabicyclo[3.2.0]heptane bis(4-methylbenzenesulfonate)]?
Ki [1]: 0.16 nM; minimal effective dose (Male Sprague-Dawley rats): > 6.2 µmol/kg

Which results are given for `COc1cncc(N2C[C@H]3CNC[C@H]32)c1` [Example 86, (1R,5S)-6-(5-methoxy-3-pyridinyl)-3,6-diazabicyclo[3.2.0]heptane 4-methylbenzenesulfonate]?
Ki [1]: 0.75 nM; minimal effective dose (Male Sprague-Dawley rats): > 19 µmol/kg

`c1cncc(N2C[C@@H]3CNC[C@@H]32)c1` [Example 55, (1S,5R)-6-(3-pyridinyl)-3,6-diazabicyclo[3.2.0]heptane fumarate] was tested. Which Ki [1] did it give?
Its Ki is 0.72 nM.

And the minimal effective dose (Male Sprague-Dawley rats)?
Its minimal effective dose is over 19 µmol/kg.

Which Ki [1] does the source give for `N#Cc1cncc(N2C[C@@H]3CCNC[C@@H]32)c1` [Example 50, 5-[(1R,6S)-3,8-diazabicyclo[4.2.0]oct-8-yl]nicotinonitrile fumarate] here?
Its Ki is 0.51 nM.

What about the minimal effective dose (Male Sprague-Dawley rats) of the same compound?
Its minimal effective dose is 6.2 µmol/kg.

How did the Ki [1] turn out when `c1cncc(N2CC3CNCC32)c1` (stereo not drawn) [Example 40, (cis)-6-(3′-pyridinyl)-3,6-diazabicyclo[3.2.0]heptane fumarate] was run?
The Ki was 6.2 nM.

What about the minimal effective dose (Male Sprague-Dawley rats) of the same compound?
Its minimal effective dose is 1.9 µmol/kg.

Which results are given for `C=Cc1cc(N2C[C@H]3CCN[C@H]3C2)cnc1Br` [Example 65, (3aR,6aR)-5-(6-bromo-5-vinyl-3-pyridinyl)octahydropyrrolo[3,4-b]pyrrole dihydrochloride]?
Ki [1]: 3.1 nM; minimal effective dose (Male Sprague-Dawley rats): > 19 µmol/kg

With `N#Cc1cncc(N2C[C@H]3CNC[C@H]32)c1` [Example 74, 5-[(1R,5S)-3,6-diazabicyclo[3.2.0]hept-6-yl]nicotinonitrile bis(4-methylbenzenesulfonate)] as the compound, how does the Ki [1] read?
Its Ki is 3.2 nM.

And the minimal effective dose (Male Sprague-Dawley rats)?
The minimal effective dose was 1.9 µmol/kg.

With `N#Cc1cc(N2C[C@H]3CCN[C@H]3C2)cnc1Br` [Example 51, 5-((3aR,6aR)-hexahydropyrrolo[3,4-b]pyrrol-5(1H)-yl)-2-bromonicotinonitrile fumarate] as the compound, how does the Ki [1] read?
Its Ki is 0.12 nM.

And the minimal effective dose (Male Sprague-Dawley rats)?
The minimal effective dose was 0.62 µmol/kg.

Which results are given for `c1cncc(N2C[C@H]3CNC[C@H]32)c1` [Example 52, (1R,5S)-6-(3-pyridinyl)-3,6-diazabicyclo[3.2.0]heptane fumarate]?
Ki [1]: 1.3 nM; minimal effective dose (Male Sprague-Dawley rats): 19 µmol/kg

Which results are given for `OCc1cc(N2C[C@H]3CCN[C@H]3C2)cnc1Br` [Example 64, [5-((3aR,6aR)-hexahydropyrrolo[3,4-b]pyrrol-5(1H)-yl)-2-bromo-3-pyridinyl]methanol fumarate]?
Ki [1]: 1.1 nM; minimal effective dose (Male Sprague-Dawley rats): > 19 µmol/kg

Which Ki [1] does the source give for `COCc1cc(N2C[C@H]3CCN[C@H]3C2)cnc1Br` [Example 67, (3aR,6aR)-5-[6-bromo-5-(methoxymethyl)-3-pyridinyl]octahydropyrrolo[3,4-b]pyrrole fumarate] here?
The Ki was 1 nM.

What about the minimal effective dose (Male Sprague-Dawley rats) of the same compound?
Its minimal effective dose is 19 µmol/kg.

How did the Ki [1] turn out when `c1cncc(N2C[C@@H]3CCNC[C@@H]32)c1` (relative stereo) [Example 44, (cis)-8-(3-pyridinyl)-3,8-diazabicyclo[4.2.0]octane bis(4-methylbenzenesulfonate)] was run?
Its Ki is 0.23 nM.

And the minimal effective dose (Male Sprague-Dawley rats)?
Its minimal effective dose is 6.2 µmol/kg.

What does the source list for `Clc1ccc(N2C[C@@H]3CN[C@@H]3C2)cn1` (relative stereo) [Example 41, (cis)-3-(6-chloro-3-pyridinyl)-3,6-diazabicyclo[3.2.0]heptane fumarate]?
Ki [1]: 1.9 nM; minimal effective dose (Male Sprague-Dawley rats): > 1.9 µmol/kg

How did the Ki [1] turn out when `C#Cc1cncc(N2C[C@H]3CCN[C@H]3C2)c1` [Example 35, (3aR,6aR)-5-(5-ethynyl-3-pyridinyl)octahydropyrrolo[3,4-b]pyrrole hydrochloride dihydrochloride] was run?
The Ki was 0.13 nM.

And the minimal effective dose (Male Sprague-Dawley rats)?
The minimal effective dose was 1.9 µmol/kg.

How did the Ki [1] turn out when `Clc1cc(N2C[C@H]3CNC[C@H]32)cnc1Cl` [Example 85, (1R,5S)-6-(5,6-dichloro-3-pyridinyl)-3,6-diazabicyclo[3.2.0]heptane fumarate] was run?
The Ki was 0.27 nM.

And the minimal effective dose (Male Sprague-Dawley rats)?
The minimal effective dose was over 19 µmol/kg.

What does the source list for `C#Cc1cncc(N2C[C@@H]3CNC[C@@H]32)c1` [Example 68, (1S,5R)-6-(5-ethynyl-3-pyridinyl)-3,6-diazabicyclo[3.2.0]heptane fumarate]?
Ki [1]: 0.61 nM; minimal effective dose (Male Sprague-Dawley rats): > 19 µmol/kg

Which Ki [1] does the source give for `Cc1cc(N2C[C@H]3CCN[C@H]3C2)cnc1Br` [Example 60, (3aR,6aR)-5-(6-bromo-5-methyl-3-pyridinyl)octahydropyrrolo[3,4-b]pyrrole dihydrochloride] here?
Its Ki is 0.11 nM.

And the minimal effective dose (Male Sprague-Dawley rats)?
The minimal effective dose was 0.62 µmol/kg.

How did the Ki [1] turn out when `Clc1ccc(N2C[C@@H]3CNC[C@@H]32)cn1` [Example 54, (1S,5R)-6-(6-chloro-3-pyridinyl)-3,6-diazabicyclo[3.2.0]heptane fumarate] was run?
The Ki was 1.3 nM.

What about the minimal effective dose (Male Sprague-Dawley rats) of the same compound?
The minimal effective dose was 1.9 µmol/kg.

How did the Ki [1] turn out when `CCc1cncc(N2C[C@H]3CCN[C@H]3C2)c1` [Example 63, (3aR,6aR)-5-(5-ethyl-3-pyridinyl)octahydropyrrolo[3,4-b]pyrrole] was run?
Its Ki is 0.56 nM.

And the minimal effective dose (Male Sprague-Dawley rats)?
Its minimal effective dose is over 19 µmol/kg.

`N#Cc1cncc(N2C[C@@H]3CNC[C@@H]32)c1` [Example 70, 5-[(1S,5R)-3,6-diazabicyclo[3.2.0]hept-6-yl]nicotinonitrile fumarate] was tested. Which Ki [1] did it give?
The Ki was 0.86 nM.

What about the minimal effective dose (Male Sprague-Dawley rats) of the same compound?
The minimal effective dose was over 19 µmol/kg.

Which results are given for `Cc1cncc(N2C[C@H]3CCN[C@H]3C2)c1` [Example 58, (3aR,6aR)-5-(5-methyl-3-pyridinyl)octahydropyrrolo[3,4-b]pyrrole trihydrochloride]?
Ki [1]: 0.53 nM; minimal effective dose (Male Sprague-Dawley rats): 1.9 µmol/kg

How did the Ki [1] turn out when `COc1cc(N2C[C@H]3CCN[C@H]3C2)cnc1Br` [Example 43, (3aR,6aR)-5-(6-bromo-5-methoxy-3-pyridinyl)octahydropyrrolo[3,4-b]pyrrole] was run?
The Ki was 0.3 nM.

What about the minimal effective dose (Male Sprague-Dawley rats) of the same compound?
Its minimal effective dose is 6.2 µmol/kg.

What does the source list for `C=Cc1cncc(N2C[C@H]3CCN[C@H]3C2)c1` [Example 56, (3aR,6aR)-5-(5-vinyl-3-pyridinyl)octahydropyrrolo[3,4-b]pyrrole dihydrochloride]?
Ki [1]: 0.62 nM; minimal effective dose (Male Sprague-Dawley rats): 1.9 µmol/kg

What does the source list for `N#Cc1cncc(N2C[C@H]3CCN[C@H]3C2)c1` [Example 37, 5-((3aR,6aR)-hexahydropyrrolo[3,4-b]pyrrol-5(1H)-yl)nicotinonitrile]?
Ki [1]: 1.2 nM; minimal effective dose (Male Sprague-Dawley rats): 6.2 µmol/kg

How did the Ki [1, 2] turn out when `Clc1ccc(N2C[C@H]3CCNC[C@H]32)cn1` [Example 47, (1S,6R)-8-(6-chloro-3-pyridinyl)-3,8-diazabicyclo[4.2.0]octane difumarate] was run?
Its Ki is 0.8 nM.

What about the minimal effective dose (Male Sprague-Dawley rats) of the same compound?
Its minimal effective dose is 1.9 µmol/kg.

With `c1cncc(N2C[C@@H]3CCNC[C@@H]32)c1` [Example 92, (1R,6S)-8-(3-pyridinyl)-3,8-diazabicyclo[4.2.0]octane 4-methylbenzenesulfonate] as the compound, how does the Ki [1, 2] read?
The Ki was 0.12 nM.

How did the Ki [1] turn out when `COc1cncc(N2C[C@@H]3CCN[C@@H]3C2)c1` [Example 32, (3aS,6aS)-5-(5-methoxy-3-pyridinyl)octahydropyrrolo[3,4-b]pyrrole 4-methylbenzenesulfonate] was run?
Its Ki is 5.3 nM.

`CN1C[C@H]2CCN(c3ccc(Cl)nc3)[C@H]2C1` (relative stereo) [Example 17, cis-1-(6-chloro-3-pyridinyl)-5-methyloctahydropyrrolo[3,4-b]pyrrole hydrochloride] was tested. Which Ki [1] did it give?
The Ki was 31 nM.
